# From patent publication US20220402917A1, “COMPOUND AS SMALL MOLECULE INHIBITOR PD-1/PD-L1 AND APPLICATION THEREOF” (MEDSHINE DISCOVERY INC., priority 2019, published 2022)
# Target: PD1/PD-L1 (Homo sapiens, UniProt Q9NZQ7)
# Assay: NFAT activity test (TCR Activitor/PD-L1 CHO cells with PD-1/NFAT Reporter-Jurkat cells)
# Format: cell-based
# Parameters: host or cells: TCR Activitor/PD-L1 CHO cells; PD-1/NFAT Reporter-Jurkat cells
# Details: TCR Activitor/PD-L1 CHO cells + PD-1/NFAT Reporter-Jurkat cells, 5 hours, luciferase; for IC50: read-out: IC50, inhibitory activity on PD1/PD-L1 binding (NFAT activity test)
# Text: Experimental Example 3: NFAT Activity Test
# The engineered T cell expresses PD-1 molecules and T cell receptor (TCR) on the surface, which can activate the NFAT signaling pathway of T cells after co-culturing with engineered antigen presenting cells (APCs). Expression of PD-L1 molecules on APCs can effectively attenuate the NFAT signaling pathway in T cells. PD-L1 inhibitors can be used effectively block the PD-1/PD-L1 regulatory mechanism, thereby reversing the weakened NFAT signaling pathway. After being pretreated with APC, the small molecule is co-cultured with T cells, then the expression of luciferase was detected to indirectly reflect the activation of the NFAT pathway in T cells.
# The PD1/PD-L1 NFAT detection kit was purchased from BPS Biosciences. Birght-Glo reagent was purchased from Promega. Nivo multi-label analyzer (PerkinElmer).
# The TCR Activitor/PD-L1 CHO cells with a growth confluence of 80% were plated into the plate at 35,000 cells per well and placed in a 37° C. cell culture incubator overnight; the compounds to be tested were diluted 5-fold to the 8th concentration, from 20 μM to 0.25 nM, and the DMSO concentration was 2%, a double-well experiment was set up. The TCR Activitor/PD-L1 CHO cell supernatant was discarded, 50 μl of compound working solution was added to each well, incubated at 37° C. for 30 minutes; after the incubation was completed, 50 μL of PD-1/NFAT Reporter-Jurkat cell suspension with a concentration of 4*10^5 cells/mL was added to each well, incubated at 37° C. for 5 hours. After the incubation was completed, 100 μL Bright-Glo was added to each well, and after mixing, the chemiluminescence signal was detected by a Nivo multi-label analyzer.
# Using the equation (sample−Min)/(Max−Min)×100% to convert the raw data into inhibition rate, and the IC50 value can be obtained by curve fitting with four parameters (obtained from log(inhibitor) vs. response—Variable slope mode in GraphPad Prism). Table 3 provides the inhibitory activity of the compounds of the examples of the present disclosure on PD1/PD-L1 binding.
# PD1/PD-L1, sequence (Q9NZQ7 19-290): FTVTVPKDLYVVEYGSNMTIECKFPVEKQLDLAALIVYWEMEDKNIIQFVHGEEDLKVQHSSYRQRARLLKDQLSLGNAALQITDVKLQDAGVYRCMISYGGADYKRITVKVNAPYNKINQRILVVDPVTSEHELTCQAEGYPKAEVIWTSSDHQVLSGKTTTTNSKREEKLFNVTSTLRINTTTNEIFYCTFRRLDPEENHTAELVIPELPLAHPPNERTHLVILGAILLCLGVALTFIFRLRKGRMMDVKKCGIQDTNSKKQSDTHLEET
compound,measurement,value
COc1nc(-c2cccc(-c3cccc(NC(=O)c4cc(C)c5c(n4)CN(CC(C)(C)O)CC5)c3Cl)c2Cl)cnc1CN1CC(O)C1 [Compound 28],Maximum effect (induction fold),3.63 induction fold
same,IC50,34.8 nM
COc1nc(-c2cccc(-c3cccc(NC(=O)c4cc(C)c5c(n4)CN(CC4(CO)CC4)CC5)c3Cl)c2Cl)cnc1CN1CC(O)C1 [Compound 29],Maximum effect (induction fold),3.52 induction fold
same,IC50,52 nM
COc1nc(-c2cccc(-c3cccc(NC(=O)c4cc(C)c5c(n4)CCN(CCO)C5)c3Cl)c2Cl)cnc1CN1CC(O)C1 [Compound 43],Maximum effect (induction fold),5.16 induction fold
same,IC50,242 nM
COc1nc(-c2cccc(-c3cccc(NC(=O)c4cc(C)c5c(n4)CN(CC(C)O)CC5)c3Cl)c2Cl)cnc1CN1CC(O)C1 (stereo not shown) [Compound 44],Maximum effect (induction fold),5.15 induction fold
same,IC50,207 nM
COc1nc(-c2cccc(-c3cccc(NC(=O)c4cc(OCC#N)c5c(n4)CN(CCO)CC5)c3Cl)c2Cl)cnc1CN1CC(O)C1 [Compound 52],Maximum effect (induction fold),4.74 induction fold
same,IC50,51.5 nM
COc1cc(C(=O)Nc2cccc(-c3cccc(-c4cnc(CN5CC6(CC(O)C6)C5)c(OC)n4)c3Cl)c2Cl)nc2c1CCN(CCO)C2 [Compound 53],Maximum effect (induction fold),3.81 induction fold
same,IC50,13.7 nM
COc1cc(C(=O)Nc2cccc(-c3cccc(-c4cnc(CNCCO)c(OC)n4)c3Cl)c2Cl)nc2c1CCN(CCO)C2 [Compound 54],Maximum effect (induction fold),3.91 induction fold
same,IC50,38.5 nM
COc1cc(C(=O)Nc2cccc(-c3cccc(-c4cnc(CN5CC(CO)C5)c(OC)n4)c3Cl)c2Cl)nc2c1CCN(CCO)C2 [Compound 55],Maximum effect (induction fold),4.56 induction fold
same,IC50,25.2 nM
COc1cc(C(=O)Nc2cccc(-c3cccc(-c4cnc(CN5CCC(CO)C5)c(OC)n4)c3Cl)c2Cl)nc2c1CCN(CCO)C2 (stereo not shown) [Compound 56],Maximum effect (induction fold),2.75 induction fold
same,IC50,10.1 nM
COc1nc(-c2cccc(-c3cccc(NC(=O)c4cc(C#N)c5c(n4)CN(CCO)CC5)c3Cl)c2Cl)cnc1CN1CC2(CC(O)C2)C1 [Compound 57],Maximum effect (induction fold),4.42 induction fold
same,IC50,40.7 nM
COc1nc(-c2cccc(-c3cccc(NC(=O)c4cc(C#N)c5c(n4)CN(CCO)CC5)c3Cl)c2Cl)cnc1CN1CC(C)(O)C1 [Compound 58],Maximum effect (induction fold),5.01 induction fold
same,IC50,104 nM
COc1nc(-c2cccc(-c3cccc(NC(=O)c4cc(C#N)c5c(n4)CN(CCO)CC5)c3Cl)c2Cl)cnc1CNCCO [Compound 59],Maximum effect (induction fold),5.35 induction fold
same,IC50,166 nM
COc1nc(-c2cccc(-c3cccc(NC(=O)c4cc(C#N)c5c(n4)CN(CCO)CC5)c3Cl)c2Cl)cnc1CN1CC(CO)C1 [Compound 60],Maximum effect (induction fold),4.95 induction fold
same,IC50,55.5 nM
COc1nc(-c2cccc(-c3cccc(NC(=O)c4cc(C#N)c5c(n4)CN(CCO)CC5)c3Cl)c2Cl)cnc1CN1CCC(CO)C1 (stereo not shown) [Compound 61],Maximum effect (induction fold),4.99 induction fold
same,IC50,53.8 nM
COc1nc(-c2cccc(-c3cccc(NC(=O)c4cc(OC(F)F)c5c(n4)CN(CCO)CC5)c3Cl)c2Cl)cnc1CN1CC2(CC(O)C2)C1 [Compound 62],Maximum effect (induction fold),4.37 induction fold
same,IC50,13.5 nM
COc1nc(-c2cccc(-c3cccc(NC(=O)c4cc(OC(F)F)c5c(n4)CN(CCO)CC5)c3Cl)c2Cl)cnc1CN1CC(C)(O)C1 [Compound 63],Maximum effect (induction fold),6.40 induction fold
same,IC50,142 nM
COc1nc(-c2cccc(-c3cccc(NC(=O)c4cc(OC(F)F)c5c(n4)CN(CCO)CC5)c3Cl)c2Cl)cnc1CN1CCC(CO)C1 (stereo not shown) [Compound 64],Maximum effect (induction fold),3.98 induction fold
same,IC50,16.5 nM
